In patent US6664268B1, “Crystal modification B of 8-cyano-1-cyclopropyl-7-(1S,6S-2, 8-diazabicyclo[4.3.0]nonan-8-yl)-6-fluoro-1,4-dihydro-4-oxo-3-quinolinecarboxylic acid” (Bayer Aktiengesellschaft, priority 1998, dated 2003):

What was measured:
[1] = Water absorption at 95% relative atmospheric humidity; type: physicochemical; conditions: relative atmospheric humidity of 95% (saturated solution of Na2HPO4×12 H2O with sediment in water), within one day
Excerpt: At a relative atmospheric humidity of 95% (established using a saturated solution of Na2HPO4×12 H2O with sediment in water), the solid obtained according to this procedure absorbs approximately 17% by weight of water within one day.
At a relative atmospheric humidity of 95% (established using a saturated solution of Na2HPO4×12 H2O with sediment in water), the solid obtained according to this procedure absorbs approximately 1% by weight of water within one day.

[2] = Storage stability of the crystal modification; type: physicochemical
Excerpt: In addition, compared with amorphous CCDC, the modification B tends to absorb less water from the atmosphere. For these reasons, it is highly suitable for preparing tablets or other solid formulations. Owing to its stability, it gives these formulations the desired long-lasting storage stability. Using the crystal modification B, it is therefore possible to prepare, in a defined and targeted manner, stable solid preparations of CCDC.

SMILES	water absorbed by the solid [1]	stability of crystal modification on prolonged storage [2]
N#Cc1c(N2C[C@@H]3CCCN[C@@H]3C2)c(F)cc2c(=O)c(C(=O)O)cn(C3CC3)c12 [Comparative Example, 8-cyano-1-cyclopropyl-7-(1 S,6S-2,8-diazabicyclo[4.3.0]nonan-8-yl)-6-fluoro-1,4-dihydro-4-oxo-3-quinolinecarboxylic acid, reference compound]	approximately 17 % by weight	
N#Cc1c(N2C[C@@H]3CCCN[C@@H]3C2)c(F)cc2c(=O)c(C(=O)O)cn(C3CC3)c12 [Example 1, 8-cyano-1-cyclopropyl-7-(1 S,6S-2,8-diazabicyclo[4.3.0]nonan-8-yl)-6-fluoro-1,4-dihydro-4-oxo-3-quinolinecarboxylic acid]	approximately 1 % by weight	does not change into another crystal modification or the amorphous form
